Format in all cases: in vivo
For one series, the system named is Lolium multiflorum Lam. The experiment in a line: Test Example 5: herbicidal effect by foliage application, plastic box (symbol K). The settings on record: 320 g/ha, 3 weeks after application. Summed up: (§1)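 Herbicide, formulated as an emulsion and diluted in water, is sprayed onto the aerial parts of 14-day seedlings. These were grown at 25° C. to 30° C. in sterilized diluvial soil; effects are graded after 3 weeks.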

In another series the test system is beet. The experiment in a line: Test Example 4: effect on crop by soil treatment (symbol f). The settings on record: application herbicide amount 320 g/ha. The essentials:
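Diluvial soil (sterilized) in boxes; seeds placed spot-wise alongside weed species; ~1.5 cm covering soil. Greenhouse, 25–30° C.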

Series [1] deals with Echinochloa crus-galli var. crus-galli. The experiment in a line: Test Example 5: herbicidal effect by foliage application, plastic box (symbol H). The settings on record: 320 g/ha, 3 weeks after application. The essentials: as §1
The next series has as its system Scirpus juncoides. The experiment in a line: Test Example 2: herbicidal activity, application during weed generation in submerged conditions (symbol B). Particulars: Table 23; application herbicide amount 320 g/ha; grade 0-5 by criteria of Test Example 1. The essentials: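 Submerged alluvial soil (4 cm) sown with mixed seed; greenhouse 25–30° C. 1–2 leaf: diluted emulsion onto water surface, preset dose. Visual score, 3 wk.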

In another series the test system is Monochoria vaginalis. The experiment in a line: Test Example 1: herbicidal activity, application before weed generation in submerged conditions (symbol C). The settings on record: application herbicide amount 320 g/ha. Summed up:
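Pre-emergence, paddy conditions: emulsifiable formulation diluted in water, dosed onto floodwater (4 cm depth) on sowing day. Alluvial soil; weeds sown mixed; rice transplanted at 2.5-leaf stage. Greenhouse 25–30 °C, 3 wk. Score 0–5 (5 = ≥90% kill, 0 = ≤5%).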

The test system of a further series is Stellaria media. The experiment in a line: Test Example 4: herbicidal effect by soil treatment (symbol P). Particulars: application herbicide amount 320 g/ha. The essentials:
(§2)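 Seeds were sown in sterilized diluvial soil, covered with about 1.5 cm of soil, and the soil surface was sprayed with a water-diluted emulsion of the compound at a predetermined rate. Plants grew in a greenhouse at 25° C. to 30° C.; effects were scored visually 3 weeks after application.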

In a further series the test system is Abutilon theophrasti. In words: Test Example 4: herbicidal effect by soil treatment (symbol M). Particulars: application herbicide amount 320 g/ha. Summed up:
as §2

Series [2] concerns directly sowed rice plant. In words: Test Example 3: effect on crop by foliage application, Wagner pot (symbol b). Particulars: application herbicide amount 320 g/ha. Summed up:
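Greenhouse culture at 25–30 °C of seeded rice, Cyperus difformis, Leptochloa chinensis and Echinochloa crus-galli var. crus-galli, in alluvial soil held under 0.1–0.5 cm of water in a Wagner pot.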

The subject of another series is soybean. The experiment in a line: Test Example 5: effect on crop by foliage application, plastic box (symbol d). Particulars: 320 g/ha, 3 weeks after application. Summed up:
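In a plastic box 7 cm deep filled with sterilized diluvial soil, seeds of crops and weeds such as Digitaria ciliaris, Avena fatua and Amaranthus retroflexus are sown in spots and covered with about 1.5 cm of soil before greenhouse growth at 25–30° C.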

`CC(=O)CC1CC(O)=C(c2c(C)cc(-c3ccc(Cl)cc3)cc2C)C1=O` (centres unmarked) [7-008]: the “K: Lolium multiflorum Lam., herbicidal effect (criteria of Test Example 1)” value in the series with Lolium multiflorum Lam. is 5 (Herbicidal ratio of 90% or more (almost completely withered)). Besides, the “Effect on crop grade, f: beet” value in the series on beet was 0 (Herbicidal ratio of 5% or lower (almost no effect)). For the same compound, the “H: Echinochloa crus-galli var. crus-galli, herbicidal effect (criteria of Test Example 1)” value in [1] is reported as 5 (Herbicidal ratio of 90% or more (almost completely withered)). Besides, in the series with Scirpus juncoides, the “Herbicidal effect grade, B: Scirpus juncoides” value (“Herbicidal effect grade, B” below) was 0 (Herbicidal ratio of 5% or lower (almost no effect)). Moreover, the “Herbicidal effect grade, C: Monochoria vaginalis” value (“Herbicidal effect grade, C” below) in the series on Monochoria vaginalis is 0 (Herbicidal ratio of 5% or lower (almost no effect)). Also, the “Herbicidal effect grade, P: Stellaria media” value in the series on Stellaria media is listed as 0 (Herbicidal ratio of 5% or lower (almost no effect)). For the same compound, the “Herbicidal effect grade, M: Abutilon theophrasti” value in the series on Abutilon theophrasti is recorded as 0 (Herbicidal ratio of 5% or lower (almost no effect)). Besides, the “effect on crop b (directly sowed rice plant), grade 0-5” value (from here on “effect on crop b”) in [2] is 5 (Herbicidal ratio of 90% or more (almost completely withered)). The “d: soybean, effect on crop (criteria of Test Example 1)” value in the series on soybean is given as 0 (Herbicidal ratio of 5% or lower (almost no effect)).

On to `CON=C(C)CC1CC(OC(=O)C(C)CSC)=C(c2c(C)cc(-c3ccc(Cl)cc3)cc2C)C1=O` (centres unmarked) [6-086], for which the “K: Lolium multiflorum Lam., herbicidal effect (criteria of Test Example 1)” value in the series on Lolium multiflorum Lam. was 5 (Herbicidal ratio of 90% or more (almost completely withered)). In addition, the “Effect on crop grade, f: beet” value in the series on beet was 1 (Herbicidal ratio of 5% or higher and lower than 20%). For the same compound, the “H: Echinochloa crus-galli var. crus-galli, herbicidal effect (criteria of Test Example 1)” value in [1] is 5 (Herbicidal ratio of 90% or more (almost completely withered)). For the same compound, in the series on Scirpus juncoides, the “Herbicidal effect grade, B” value was 4 (Herbicidal ratio of 70% or higher and lower than 90%). For the same compound, the “Herbicidal effect grade, C” value in the series on Monochoria vaginalis is on record as 0 (Herbicidal ratio of 5% or lower (almost no effect)). For the same compound, the “Herbicidal effect grade, P: Stellaria media” value in the series with Stellaria media was 4 (Herbicidal ratio of 70% or higher and lower than 90%). For the same compound, the “Herbicidal effect grade, M: Abutilon theophrasti” value with Abutilon theophrasti was 0 (Herbicidal ratio of 5% or lower (almost no effect)). For the same compound, the “effect on crop b” value in [2] is 5 (Herbicidal ratio of 90% or more (almost completely withered)). The “d: soybean, effect on crop (criteria of Test Example 1)” value in the series with soybean was 5 (Herbicidal ratio of 90% or more (almost completely withered)).

With `CON=C(C)CC1CC(OC(=O)COc2ccccc2)=C(c2c(C)cc(-c3ccc(Cl)cc3)cc2OC)C1=O` (centres unmarked) [6-079], the “K: Lolium multiflorum Lam., herbicidal effect (criteria of Test Example 1)” value in the series with Lolium multiflorum Lam. is given as 5 (Herbicidal ratio of 90% or more (almost completely withered)). In the series with beet, the “f: beet, effect on crop grade” value is recorded as 0 (Herbicidal ratio of 5% or lower (almost no effect)). Also, the “H: Echinochloa crus-galli var. crus-galli, herbicidal effect (criteria of Test Example 1)” value in [1] was 5 (Herbicidal ratio of 90% or more (almost completely withered)). Also, the “Herbicidal effect grade, B” value in the series on Scirpus juncoides was 2 (Herbicidal ratio of 20% or higher and lower than 40%). Also, the “Herbicidal effect grade, C” value in the series on Monochoria vaginalis is 2 (Herbicidal ratio of 20% or higher and lower than 40%). Moreover, in the series on Stellaria media, the “P: Stellaria media, herbicidal effect grade” value was 0 (Herbicidal ratio of 5% or lower (almost no effect)). The “M: Abutilon theophrasti, herbicidal effect grade” value with Abutilon theophrasti is 1 (Herbicidal ratio of 5% or higher and lower than 20%). Moreover, the “effect on crop b” value in series [2] is given as 5 (Herbicidal ratio of 90% or more (almost completely withered)).
